Results: ChEMBL document CHEMBL1817544, “Carbonic anhydrase inhibitors. Synthesis, molecular structures, and inhibition of the human cytosolic isozymes I and II and transmembrane isozymes IX, XII (cancer-associated) and XIV with novel 3-pyridinesulfonamide derivatives” (Eur J Med Chem, 2011)

How the values were obtained:
Carbonic anhydrase 9 = Carbonic anhydrase 9 (Homo sapiens, UniProt Q16790)
Carbonic anhydrase 1 = Carbonic anhydrase 1 (Homo sapiens, UniProt P00915)
Carbonic anhydrase 1, sequence (P00915 whole entry): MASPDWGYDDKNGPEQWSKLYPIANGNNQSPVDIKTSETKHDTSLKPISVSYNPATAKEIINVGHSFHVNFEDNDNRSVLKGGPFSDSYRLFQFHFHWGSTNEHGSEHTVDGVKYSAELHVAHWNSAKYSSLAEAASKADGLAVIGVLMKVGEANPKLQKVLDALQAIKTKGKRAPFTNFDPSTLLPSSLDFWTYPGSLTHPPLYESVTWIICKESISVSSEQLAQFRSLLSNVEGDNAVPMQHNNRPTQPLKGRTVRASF

For `COC1=C(S(N)(=O)=O)C2NS(=O)(=O)c3cnccc3N2C=C1` (centres undefined), the Ki (Carbonic anhydrase 9) was 13.5 nM.
In the case of `NS(=O)(=O)c1cnccc1-[n+]1ccccc1`, the Ki (Carbonic anhydrase 9) is reported as 7.6 nM.
In the case of `Cc1cccc[n+]1-c1ccncc1S(N)(=O)=O`, the Ki (Carbonic anhydrase 9) is reported as 7.4 nM.
`Cc1cc[n+](-c2ccncc2S(N)(=O)=O)cc1` gave a Ki (Carbonic anhydrase 9) of 10.1 nM.
`CN(C)c1cc[n+](-c2ccncc2S(N)(=O)=O)cc1` gave a Ki (Carbonic anhydrase 9) of 9 nM.
Molecule `COC1=CC=CC2N1c1ccncc1S(=O)(=O)N2c1ccncc1S(N)(=O)=O` (centres undefined) has a Ki (Carbonic anhydrase 9) of 8.7 nM.
Work on `NS(=O)(=O)c1cnccc1-n1ccccc1=O` yielded a Ki (Carbonic anhydrase 9) of 10.2 nM.
With `NS(=O)(=O)c1cnccc1Oc1ccncc1S(N)(=O)=O` the Ki (Carbonic anhydrase 1) was 251000 nM and the Ki (Carbonic anhydrase 9) was 9 nM.
